pEC50: −log10 of the molar value. Like-named read-outs stand apart in the source and are kept apart here.
Experiments:
[1] = system: C57BL/6 splenocytes; assay: Splenocyte apoptosis (TUNEL, flow cytometry); type: cell-based, mouse; settings: 20 h
Protocol: C57BL/6 splenocytes (3×10^6/ml) were cultured in 24-well plate for 20 h in 500 μl of RPMI-1640 under the conditions described above. […] Apoptotic cell death was detected by TUNEL, using InSitu Cell Detection Kit, Fluorescein (Boehringer Mannheim, Indianapolis, Ind.). After the culture period, cells were washed, fixed, permeabilised and stained following manufacturer's instructions and apoptosis was analyzed by flow cytometry, using FACS Calibur (Becton Dickinson, San Jose, Calif.).

[2] = system: C57BL/6 males; assay: Splenocyte populations after in vivo treatment (FACS); parameters: species or system mouse; settings: 130 mg/kg for 10 days
Protocol: All Abs were purchased from Pharmingen, San Diego, Calif. Stained splenocytes were analyzed by FACS Calibur, as described above.

[3] = system: NOD-scid/scid females; assay: Adoptive transfer of diabetes; type: in vivo, mouse; settings: 50 mg/kg daily, up to week 5 post transfer
Protocol: Single-cell suspensions of splenic leucocytes pooled from 8-10 diabetic NOD females were prepared by passage through Nitex 110 mesh, and red blood cells were lysed in 10× Gey's solution. Aliquots of 1×10^7 splenocytes were adoptively transferred intravenously into 4-week-old NOD/Lt-scid/scid females (The Jackson Laboratory, Bar Harbor, Me.). […] Mice were monitored for diabetes development by testing urinary glucose every week from second week after the transfer by Chemstrip uGK strips (Boehringer Mannheim, Indianapolis, Ind.). Mice with glycosuria over 500 mg/dl (+++) on consecutive weekly tests were considered diabetic, with the first detection of chronic glycosuria taken as the date of IDDM onset.

[4] = system: NALM-6 human leukemia cells; assay: Mitochondrial membrane potential (DiIC1, JC-1 flow cytometry); type: cell-based; settings: for pEC50: Homo sapiens, NALM-6
Protocol: Mitochondrial membrane potential (Δψm) was measured using two dyes including a lipophillic cation 5,5′,6,6′-tetrachloro-1,1′,3,3′-tetraethlybenzimidazolylcarbocyanine iodide (JC-1) and a cyanine dye, 1,1′,3,3,3′,3′-hexamethylindodicarbocyanine iodide (DiIC1 (27-29)) obtained from Molecular Probes (Eugene, Oreg.). JC-1 is a monomer at 527 nm after being excited at 490 nm; with polarization of Δψm, J-aggregates are formed that shift emission to 590 nm (30). This can be detected on a flow cytometer by assessing the green signal (at 527 nm) and green-orange signal (at 590 nm) simultaneously, creating an index of the number of cells polarized and depolarized mitochondria. DiIC1, a cyanine dye which is amphioatheic and cationic, concentrates in energized mitochondria and has been used in a variety of studies to measure the mitochondrial membrane potential (Fujii, H., et al., Histochem J. 29: 571-581, 1997; Mancini, M., et al., J. Cell Biol. 138: 449-469, 1997; and Petit, P. X., et al., J. Cell Biol. 130: 157-167, 1995). Cells were also stained with DiIC1 at 40 nM concentration for 30 min in the dark as described for JC-1. The cells were analyzed using a Vantage Becton Dickinson (San Jose, Calif.) cell sorter equipped with HeNe laser with excitation at 635 nm and the fluorescence was collected at 666 nm.
To test the cytotoxicity of compound 6 against JAK-3 expressing human leukemia cells, leukemic cells were exposed to this JAK3 inhibitor and monitored for apoptosis-associated changes in mitochondrial membrane potential (Δψm) and mitochondrial mass using specific fluorescent mitochondrial probes and multiparameter flow cytometry. To measure changes in Δψm, DiIC1 (which accumulates in energized mitochondria) was used, whereas the mitochondrial mass was determined by staining the cells with NAO, a fluorescent dye that binds to the mitochondrial inner membrane independent of energetic state. Treatment of NALM-6 leukemia cells with compound 6 at 7.4 μg/ml (25 μM) to 60 μg/ml (200 μM) for 24 h or 48 h increased the number of depolarized mitochondria in a concentration- and time-dependent manner as determined by flow cytometry using DiIC1 (27-29) (FIG. 7A). […] To further confirm this relative change in Δψm, we used JC-1, a mitochondrial dye, which normally exists in solution as a monomer emitting green fluorescence and assumes a dimeric configuration emitting red fluorescence in a reaction driven by mitochondrial transmembrane potential (Smiley, S. T., et al., Proc. Natl. Acad. Sci. U.S. A. 88: 3671-3675, 1991). Thus, the use of JC-1 allows simultaneous analysis of mitochondrial mass (green fluorescence) and mitochondrial transmembrane potential (red/orange fluorescence). After treatment of NALM-6 cells with compound 6 at increasing concentrations ranging from 25 μM to 200 μM and with increasing duration of exposure of 24 h or 48 h, we observed a progressive dissociation between Δψm and mitochondrial mass, with decrement in JC-1 red/orange fluorescence without a significant corresponding drop in JC-1 green fluorescence (FIG. 7C&D).

Question: How did the “apoptotic cell death of splenocytes (TUNEL-positive)” value ([1]; 0.1 and 1 μg/ml) turn out when `COc1cc2ncnc(Nc3ccc(O)cc3)c2cc1OC` [WHI-P131, 4-(4′-hydroxyl-phenyl)-amino-6,7-dimethoxyquinazoline] was run?
Answer: does not differ from control cells

Question: And the “apoptotic cell death of splenocytes (TUNEL-positive)” value ([1]; 10 and 100 μg/ml)?
Answer: significantly increased

Question: What about the “percentages of CD3+, CD4+ and CD8+ T-cells and CD19+ B-cells vs vehicle” value ([2]; data not shown) of the same compound?
Answer: no differences

Question: And the “number of CD4+ T-cells” value ([2]; controls 20.5±0.6)?
Answer: 16.8±1.2 ×10^6

Question: What about the “number of CD3+ splenocytes” value ([2]; controls 46.9±2.6) of the same compound?
Answer: 37.7±3.2 ×10^6

Question: And the “number of B-cells” value ([2]; controls 78.2±6.1)?
Answer: 57.1±5.3 ×10^6

Question: What about the “Total number of splenocytes” value ([2]; vehicle 154±8.5) of the same compound?
Answer: 119±9.4 ×10^6

Question: And the “diabetic mice post adoptive transfer” value [3]?
Answer: 8%

Question: And the “JC-1 green fluorescence (mitochondrial mass)” value ([4]; 200 μM × 48 hours)?
Answer: 99.8%

Question: What about the “fraction of DiIC1-negative cells with depolarized mitochondria” value ([4]; 200 μM, 48 hours) of the same compound?
Answer: 81.6%

Question: What about the “fraction of JC-1 red/orange fluorescence-negative cells” value ([4]; 200 μM, 48 hours) of the same compound?
Answer: 16.9%

Question: And the pEC50 ([4]; 24 hour treatment, read-out: EC50, depolarization of mitochondria (decreased DiIC1 staining))?
Answer: 4.10

Question: And the pEC50 ([4]; 24 hour treatment, read-out: EC50, depolarization of mitochondria (decreased JC-1 red/orange fluorescence))?
Answer: 4.03

Question: What about the pEC50 ([4]; 48 hour treatment, read-out: EC50, depolarization of mitochondria (decreased DiIC1 staining)) of the same compound?
Answer: 4.23

Question: And the pEC50 ([4]; 48 hour treatment, read-out: EC50, depolarization of mitochondria (decreased JC-1 red/orange fluorescence))?
Answer: 4.30

Reference: patent publication US6469013B2, “Therapeutic compounds” (Parker Hughes Institute, priority 1998, dated 2002)
